The results in this text go back to US11883442B1, “Composition for treating irritable bowel syndrome” (KING FAISAL UNIVERSITY, priority 2023, dated 2024).

In this test the test system is TNF-α. As to the kind of experiment: cytokine (TNF-α) levels in the colonic homogenate, TNBS-induced colitis model. The test is classed as in vivo, C57B16j mice. As to conditions: at a pH value of 5.2; FIG. 2B. The protocol: Colitis was induced in C57B16j mice by 2,4,6-trinitrobenzene sulfonic acid (TNBS). TNBS induction was made at 0 and 4 days. BA 10^8/mL BA, EF 10^9/mL EF, and calciferol at […] was administered as oral gavage on alternative days from day 0 to day 14.
A comparative evaluation of cytokine (TNF-α) levels in the colonic homogenate of different mice groups from the TNBS-induced colitis model was performed. TNF-α was quantified after 14 days of the start of the experiment. All data were collected from three individual experiments and pooled and expressed as mean ±SD (p<0.05). The effect of BA and EF loads on the pro-inflammatory marker (TNF-α) in TNBS-induced colitis mice is illustrated in FIGS. 1A-1B (values are expressed in pg/mL).
Disease index and bleeding indicated degree of recovery of the disease in the group treated with the composition. […] TNF-α was quantified after 14 days of the experiment. The values are expressed in pg/mL. All data were collected from three individual experiments and pooled and expressed as mean ±SD (p<0.05). *p<0.05 represents significance.

As for `C=C1CC[C@H](O)C/C1=C/C=C1\CCC[C@]2(C)[C@@H]([C@H](C)/C=C/[C@H](C)C(C)C)CC[C@@H]12` [calciferol], the “most effective concentration of calciferol in the composition” value came out at 5 µM.
